US20050142169A1, “Palatability enhanced composition and method for animal consumption” (priority 2003, published 2005)
Where two headings read alike, the source gives them in different places.

Experiments:
dogs [1] = assay: two-bowl preference test, Example 3 (Canine w/d, 3.5% test flavor); format: in vivo, dog; settings: dry wt. of kibble, test flavor 3.5%
Experimental: Each of the test flavors (3.5%, dry weight basis) was topically applied to a dry, commercial dog food (Canine w/d from Hill's Pet Nutrition, Inc.) after topical application of a commercial dry palatant enhancer in choice white grease (0.6%, dry weight basis) to form a test composition. Each test composition was compared against a control composition in a palatability test as described in Example 1. The control compositions were prepared by topically applying the commercial liquid palatant enhancer (3.5% dry weight basis) to the dry, commercial dog food (Canine w/d) after application of a commercial dry palatant enhancer in choice white grease (0.6%, dry weight basis). Palatability was determined by comparing the test composition and the control composition in a standard two-bowl preference test over two days with 20 dogs as described in Example 1.

dogs [2] = assay: two-bowl preference test, Example 4 (Canine w/d, 2.4% test flavor); format: in vivo, dog; settings: dry wt. of kibble, test flavor 2.4%
Experimental: The experiment comprised mixing various amounts of 2,5-dimethyl-4-hydroxy-3(2H)-furanone with a commercial liquid palatant enhancer as a carrier to form a test flavor. Each of the test flavors (2.4%, dry weight basis) was topically applied to a dry, commercial dog food (Canine w/d from Hill's Pet Nutrition, Inc.) after application of a commercial dry palatant enhancer in choice white grease (0.6%, dry weight basis) to form a test composition. […] The control compositions were prepared by topically applying the commercial liquid palatant enhancer (2.4% dry weight basis) to the dry, commercial dog food (Canine w/d) after application of a commercial dry palatant enhancer in choice white grease (0.6%, dry weight basis). Palatability was determined by comparing the test composition and the control composition in a standard two-bowl preference test over two days with 20 dogs as described in Example 1.

dogs [3] = settings: for Intake Ratio / Preference (%) control composition / Preference (%) test composition / Status (vs. control): dry wt. of kibble, dogs, Hill's Canine Maintenance Adult
Source text: The experiment comprised mixing various amounts of 2,5-dimethyl-4-hydroxy-3(2H)-furanone (0.2% to 1.2%) with a commercial liquid palatant enhancer as a carrier to form a flavored palatant (hereinafter test flavor). The test flavor (2.0%, dry weight basis) was topically applied to a dry, commercial dog food (Hill's Canine Maintenance Adult, a Science Diet for adult dogs commercially available from Hill's Pet Nutrition, Inc., Topeka, Kans.) after sequential application of soy bean oil (1.2%, dry weight basis) and choice white grease (7.9%, dry weight basis) to form a test composition.
Each test composition was compared against a control composition in a palatability test. The control compositions were prepared by topically applying the commercial liquid palatant enhance (2.0% dry weight basis) to the dry, commercial dog food (Hill's Canine Maintenance Adult) after sequential application of soy bean oil (1.2%, dry weight basis) and choice white grease (7.9%, dry weight basis). Palatability was determined by comparing the test composition and the control composition in a standard two-bowl preference test over two days with 20 dogs.

cats = assay: two-bowl preference test, Example 5 (Feline w/d); format: in vivo, cat; settings: dry wt. of kibble
Source text: Finally, a commercial dry palatant enhancer (1.4% dry weight basis) was topically applied to the dry kibbles to complete the test composition.

[4] = Exp. No. 6, second set of experiments, 87.1 ppm
[5] = Exp. No. 7, second set of experiments, 130.5 ppm
[6] = Exp. No. 8, second set of experiments, 174.0 ppm
[7] = Exp. No. 9, second set of experiments, 217.5 ppm
[8] = Exp. No. 10, second set of experiments, 282.8 ppm
[9] = Exp. No. 7, second set of experiments, 5.0 ppm
[10] = Exp. No. 8, second set of experiments, 10.0 ppm
[11] = Exp. No. 9, second set of experiments, 20.0 ppm
[12] = Exp. No. 10, second set of experiments, 30.0 ppm
[13] = Exp. No. 11, second set of experiments, 40.0 ppm
[14] = Exp. No. 12, second set of experiments, 50.0 ppm

## CC1=C(O)C(=O)C(C)O1 (centres unmarked) [2,5-dimethyl-4-hydroxy-3(2H)-furanone]
Dogs [1]; Exp. No. 1, 87.1 ppm
  Intake Ratio: 0.7301
  Preference (%) control composition: 16.7%
  Preference (%) test composition: 83.3%
  Status (vs. control): Win
Dogs [1]; Exp. No. 2, 130.5 ppm
  Intake Ratio: 0.7323
  Preference (%) control composition: 8.0%
  Preference (%) test composition: 88.0%
  Status (vs. control): Win
Dogs [1]; Exp. No. 3, 174.0 ppm
  Intake Ratio: 0.6669
  Preference (%) control composition: 24.0%
  Preference (%) test composition: 76.0%
  Status (vs. control): Win
Dogs [1]; Exp. No. 4, 217.5 ppm
  Intake Ratio: 0.5713
  Preference (%) control composition: 40.0%
  Preference (%) test composition: 60.0%
  Status (vs. control): Parity
Dogs [2]; Exp. No. 1, 87.1 ppm
  Intake Ratio: 0.6939
  Preference (%) control composition: 16.0%
  Preference (%) test composition: 76.0%
  Status (vs. control): Win
Dogs [2]; Exp. No. 2, 130.5 ppm
  Intake Ratio: 0.6616
  Preference (%) control composition: 28.0%
  Preference (%) test composition: 72.0%
  Status (vs. control): Win
Dogs [2]; Exp. No. 3, 174.0 ppm
  Intake Ratio: 0.6947
  Preference (%) control composition: 24.0%
  Preference (%) test composition: 76.0%
  Status (vs. control): Win
Dogs [2]; Exp. No. 4, 217.5 ppm
  Intake Ratio: 0.7773
  Preference (%) control composition: 8.0%
  Preference (%) test composition: 92.0%
  Status (vs. control): Win
Dogs [2]; Exp. No. 5, 282.8 ppm
  Intake Ratio: 0.8079
  Preference (%) control composition: 8.3%
  Preference (%) test composition: 87.5%
  Status (vs. control): Win
Dogs [2]; [4]
  Intake Ratio: 0.6058
  Preference (%) control composition: 40.0%
  Preference (%) test composition: 60.0%
  Status (vs. control): Win
Dogs [2]; [5]
  Intake Ratio: 0.6857
  Preference (%) control composition: 24.0%
  Preference (%) test composition: 76.0%
  Status (vs. control): Win
Dogs [2]; [6]
  Intake Ratio: 0.5568
  Preference (%) control composition: 40.0%
  Preference (%) test composition: 56.0%
  Status (vs. control): Parity
Dogs [2]; [7]
  Intake Ratio: 0.5453
  Preference (%) control composition: 40.0%
  Preference (%) test composition: 60.0%
  Status (vs. control): Parity
Dogs [2]; [8]
  Intake Ratio: 0.7429
  Preference (%) control composition: 16.0%
  Preference (%) test composition: 84.0%
  Status (vs. control): Win
Dogs [3]; Exp. No. 2, 43.5 ppm
  Intake Ratio: 0.5705
  Preference (%) control composition: 27.8%
  Preference (%) test composition: 61.1%
  Status (vs. control): Parity
Dogs [3]; Exp. No. 3, 87.1 ppm
  Intake Ratio: 0.7361
  Preference (%) control composition: 10.0%
  Preference (%) test composition: 90.0%
  Status (vs. control): Win
Dogs [3]; Exp. No. 4, 130.5 ppm
  Intake Ratio: 0.5673
  Preference (%) control composition: 25.0%
  Preference (%) test composition: 50.0%
  Status (vs. control): Win
Dogs [3]; Exp. No. 5, 217.5 ppm
  Intake Ratio: 0.6575
  Preference (%) control composition: 40.0%
  Preference (%) test composition: 60.0%
  Status (vs. control): Win
Dogs [3]; Exp. No. 6, 217.5 ppm
  Intake Ratio: 0.8206
  Preference (%) control composition: 5.0%
  Preference (%) test composition: 95.0%
  Status (vs. control): Win
Dogs [3]; dog, in vivo
  intolerance of the test palatant following intake: No evidence of any intolerance
cats; Exp. No. 1, 5.0 ppm
  Intake Ratio: 0.7676
  Preference (%) control composition: 8.0%
  Preference (%) test composition: 92.0%
  Status (vs. control): Win
cats; Exp. No. 2, 10.0 ppm
  Intake Ratio: 0.8135
  Preference (%) control composition: 8.0%
  Preference (%) test composition: 88.0%
  Status (vs. control): Win
cats; Exp. No. 3, 20.0 ppm
  Intake Ratio: 0.8151
  Preference (%) control composition: 12.0%
  Preference (%) test composition: 88.0%
  Status (vs. control): Win
cats; Exp. No. 4, 30.0 ppm
  Intake Ratio: 0.7546
  Preference (%) control composition: 20.0%
  Preference (%) test composition: 80.0%
  Status (vs. control): Win
cats; Exp. No. 5, 40.0 ppm
  Intake Ratio: 0.7626
  Preference (%) control composition: 12.0%
  Preference (%) test composition: 88.0%
  Status (vs. control): Win
cats; Exp. No. 6, 50.0 ppm
  Intake Ratio: 0.8505
  Preference (%) control composition: 8.0%
  Preference (%) test composition: 92.0%
  Status (vs. control): Win
cats; [9]
  Intake Ratio: 0.9385
  Preference (%) control composition: 0.0%
  Preference (%) test composition: 100.0%
  Status (vs. control): Win
cats; [10]
  Intake Ratio: 0.7990
  Preference (%) control composition: 12.0%
  Preference (%) test composition: 84.0%
  Status (vs. control): Win
cats; [11]
  Intake Ratio: 0.8128
  Preference (%) control composition: 8.0%
  Preference (%) test composition: 92.0%
  Status (vs. control): Win
cats; [12]
  Intake Ratio: 0.8912
  Preference (%) control composition: 4.0%
  Preference (%) test composition: 92.0%
  Status (vs. control): Win
cats; [13]
  Intake Ratio: 0.8012
  Preference (%) control composition: 16.0%
  Preference (%) test composition: 80.0%
  Status (vs. control): Win
cats; [14]
  Intake Ratio: 0.8339
  Preference (%) control composition: 12.5%
  Preference (%) test composition: 87.5%
  Status (vs. control): Win
